Data as given in publication PMC10706865, “Repurposing Study of 4-Acyl-1-phenylaminocarbonyl-2-substituted-piperazine Derivatives as Potential Anticancer Agents—In Vitro Evaluation against Breast Cancer Cells” (International Journal of Molecular Sciences, 2023).
“And” between values parts separate entries of the source, which are not always exact repeats. Equal entries are not always repeated. Where two headings read alike, the source gives them in different places.

How the values were obtained:
[1] = system: MCF 10A human normal breast cells; test: MTT cell viability assay, MCF 10A normal breast cells; type: cell-based
Procedure: (§1) To evaluate the cytotoxicity of our compounds against cancer cells, they were evaluated in vitro against MCF7 human breast cancer cells. To examine the selectivity of our compounds, they were also studied against MCF 10A human normal cells. Both cell lines were exposed to different concentrations of our compounds for 72 h before measuring cell viability with the 3-(4,5-dimethylthiazol-2-yl)-2,5-diphenyltetrazolium bromide (MTT) assay (for conditions of the MTT assay, see the Experimental Part, Section 3). Docetaxel, an anticancer drug used in clinics, was tested under the same experimental conditions. Data were obtained from at least two independent experiments and were expressed as means ± standard error of means (SEM). The half-maximal inhibitory concentration (IC50) value of each compound was calculated, and the results are collected in Table 2. To evaluate the selective activity of our compounds, the selectivity index (SI) was also calculated. The curves of cell viability of MCF7 cancer cells and MCF 10A normal cells after the treatment with our compounds are shown (Figure 5, Figure 6, Figure 7, Figure 8 and Figure 9 and Figures S1–S4).
(§2) Exponentially growing cells were seeded into 96-well plates, and drugs were added 24 h later. Each compound was dissolved with DMSO (Panreac Applichem) to prepare a stock solution (100 mM). The working solutions of specific concentrations were prepared via the dilution of the stock solutions in the culture medium and were immediately used to treat the cells. The remaining stock solutions were aliquoted and frozen at −40 °C. We used different aliquots in each independent experiment to avoid the freeze–thaw cycles. Cells were exposed to the drugs for 72 h. After these 72 h, cell viability was determined with the MTT assay or the resazurin assay. These assays are colorimetric techniques that are widely used to determine cell viability.
(§3) The MTT assay is based on the capability of viable cells to transform the MTT salt into a purple formazan dye. After an incubation period of the cells with the MTT and a solubilization step, the quantity of the colored product is measured with a plate reading spectrophotometer. […] The quantity of formazan produced is presumably proportional to the number of viable cells. After seeding for 24 h, cells were treated with the tested drugs for 72 h. Then, medium was removed, and 125 μL of MTT (1 mg/mL in medium) was added to each well for 3–4 h. Subsequently, 80 μL of 20% sodium dodecyl sulfate (Panreac Applichem) in 20 mM hydrochloric acid (Panreac Applichem) was added to dissolve the insoluble purple formazan product, plates were incubated for 10 h at 37 °C, and optical densities were measured at 540 nm on a multiwell plate spectrophotometer reader.
(§4) In both assays, cell viability was expressed as percentage in relation to controls. All data were averaged from at least two independent experiments and were expressed as mean ± standard error of the mean (SEM). Selectivity indices (SI) were calculated by dividing the IC50 values in the nonmalignant cells by those in the cancer cells.

[2] = system: MCF7 human breast cancer cells; test: MTT cell viability assay, MCF7 breast cancer cells; type: cell-based; settings: for IC50: MTT assay; for Selectivity Index: IC50 MCF 10A divided by IC50 MCF7, 72 h, MTT
Procedure: as §1, §2, §3, §4

[3] = 72 h exposure, read-out: IC50 (Mean ± SEM; μM) MCF 10A (Normal)
[4] = 72 h exposure, read-out: IC50 (Mean ± SEM; μM) MCF7 (Cancer)
[5] = Homo sapiens, MCF7, 72 h, 72 h exposure, read-out: IC50 (Mean ± SEM; μM) MCF7 (Cancer)

Compound	IC50 [2, 4] [µM]	IC50 [2, 5] [µM]	IC50 ([2]; Homo sapiens, MCF7, 72 h, docetaxel line in nM, 72 h, read-out: IC50 (Mean ± SEM) MCF7 (Cancer)) [µM]	IC50 [1, 3] [µM]	Selectivity Index [2]	IC50 ([1]; docetaxel line in nM, 72 h, read-out: IC50 (Mean ± SEM) MCF 10A (Normal)) [µM]
O=C(c1cc2ccccc2o1)N1CCN(C(=O)Nc2cc(C(F)(F)F)ccc2Cl)C(c2ccccc2)C1 (stereo not drawn) [Compound 38]	–	91.9 ± 35.7	–	117 ± 21.1	1.4 ± 0.3	–
CC1CN(C(=O)OC(C)(C)C)CCN1C(=O)Nc1ccc(Cl)cc1 (stereo not drawn) [Compound 15]	–	43.4 ± 3.7	–	170 ± 61.6	3.8 ± 1.1	–
CC1CN(C(=O)c2cc3ccccc3o2)CCN1C(=O)Nc1ccccc1 (stereo not drawn) [Compound 25]	–	48.5 ± 10.1	–	161 ± 64.6	3.2 ± 0.7	–
CC1CN(C(=O)OC(C)(C)C)CCN1C(=S)Nc1ccc([N+](=O)[O-])cc1 (stereo not drawn) [Compound 14]	–	34.2 ± 0.1	–	35.6 ± 4.5	1.0 ± 0.1	–
COc1ccc(NC(=O)N2CCN(C(=O)OC(C)(C)C)CC2c2ccccc2)cc1 (stereo not drawn) [Compound 33]	–	130 ± 31.4	–	325 ± 27.6	2.6 ± 0.4	–
CC1CN(C(=O)OC(C)(C)C)CCN1C(=O)Nc1ccc([N+](=O)[O-])cc1 (stereo not drawn) [Compound 12]	–	34.6 ± 4.8	–	84.2 ± 12.4	2.4 ± 0.0	–
COc1ccc(NC(=O)N2CCN(C(=O)c3ccccc3)CC2C)cc1 (stereo not drawn) [Compound 11]	–	359 ± 74.7	–	478 ± 35.6	1.4 ± 0.4	–
O=C(c1cc2ccccc2o1)N1CCN(C(=O)Nc2ccccc2[N+](=O)[O-])C(c2ccccc2)C1 (stereo not drawn) [Compound 39]	–	226 ± 175	–	> 1000	>2.5	–
COc1ccc(NC(=O)N2CCN(C(=O)C(C)(C)C)CC2C)cc1 (stereo not drawn) [Compound 8]	–	118 ± 48.7	–	541 ± 259	5.2 ± 3.1	–
O=C(c1cc2ccccc2o1)N1CCN(C(=O)Nc2ccc(Cl)cc2)C(c2ccccc2)C1 (stereo not drawn) [Compound 36]	–	41.3 ± 4.2	–	161 ± 16.5	4.0 ± 0.9	–
CC1CN(C(=O)c2cc3ccccc3o2)CCN1C(=O)Nc1ccc(Cl)cc1 (stereo not drawn) [Compound 19]	–	30.5 ± 1.1	–	261 ± 2.6	–	–
CC(C)(C)OC(=O)N1CCN(C(=O)Nc2ccc([N+](=O)[O-])cc2)C(c2ccccc2)C1 (stereo not drawn) [Compound 26]	–	–	–	71.3 ± 3.6	15.2 ± 11.1	–
COc1ccc(NC(=O)N2CCN(C(=O)OC(C)(C)C)CC2C)cc1 (stereo not drawn) [Compound 13]	–	250 ± 19.4	–	915 ± 226	3.6 ± 0.6	–
CC(=O)O[C@@]12CO[C@@H]1C[C@H](O)[C@@]1(C)C(=O)[C@H](O)C3=C(C)[C@@H](OC(=O)[C@H](O)[C@@H](NC(=O)OC(C)(C)C)c4ccccc4)C[C@@](O)([C@@H](OC(=O)c4ccccc4)[C@H]21)C3(C)C [Docetaxel, reference compound]	–	–	0.0761 ± 0.0262	–	˂1	< 0.001
CC1CN(C(=O)c2cc3ccccc3o2)CCN1C(=O)Nc1ccc(C(F)(F)F)cc1 (stereo not drawn) [Compound 20]	–	31.7 ± 4.1	–	244 ± 8.2	–	–
CC1CN(C(=O)OC(C)(C)C)CCN1C(=O)Nc1ccc(C(F)(F)F)cc1 (stereo not drawn) [Compound 16]	–	31.3 ± 3.6	–	60.1 ± 19.8	1.9 ± 0.4	–
COc1ccccc1NC(=O)N1CCN(C(=O)c2cc3ccccc3o2)CC1C (stereo not drawn) [Compound 23]	–	31.4 ± 5.5	–	74.7 ± 30.2	2.3 ± 0.6	–
CC1CN(C(=O)C(C)(C)C)CCN1C(=O)Nc1ccc([N+](=O)[O-])cc1 (stereo not drawn) [Compound 7]	–	60.8 ± 1.2	–	38.5 ± 4.6	0.6 ± 0.1	–

More lines, main results first:

IC50 [2, 4] [µM]	IC50 [2, 5] [µM]	IC50 ([2]; Homo sapiens, MCF7, 72 h, docetaxel line in nM, 72 h, read-out: IC50 (Mean ± SEM) MCF7 (Cancer)) [µM]	Compound	IC50 [1, 3] [µM]	Selectivity Index [2]	IC50 ([1]; docetaxel line in nM, 72 h, read-out: IC50 (Mean ± SEM) MCF 10A (Normal)) [µM]
12.1 ± 0.6	< 20	–	CC1CN(C(=O)c2cc3ccccc3o2)CCN1C(=O)Nc1ccc([N+](=O)[O-])cc1 (stereo not drawn) [Compound 18]	30.4 ± 1.8	2.5 ± 0.2	–
–	22.7 ± 1.6	–	CC1CN(C(=O)OC(C)(C)C)CCN1C(=O)Nc1ccc(C(F)(F)F)c(Cl)c1 (stereo not drawn) [Compound 17]	41.7 ± 4.1	1.9 ± 0.2	–
–	28.1 ± 1.2	–	CC1CN(C(=O)c2cc3ccccc3o2)CCN1C(=O)Nc1ccccc1[N+](=O)[O-] (stereo not drawn) [Compound 22]	32.4 ± 1.9	1.2 ± 0.1	–
–	24.3 ± 3.4	–	CC(C)(C)OC(=O)N1CCN(C(=O)Nc2ccccc2[N+](=O)[O-])C(c2ccccc2)C1 (stereo not drawn) [Compound 30]	63.2 ± 10.9	2.6 ± 0.1	–
19.4 ± 3.8	< 20	–	CC1CN(C(=O)c2cc3ccccc3o2)CCN1C(=O)Nc1ccc(C#N)cc1 (stereo not drawn) [Compound 21]	31.2 ± 2.8	1.6 ± 0.2	–
15.8 ± 8.2	< 20	–	CC1CN(C(=O)C(C)(C)C)CCN1C(=S)Nc1ccc([N+](=O)[O-])cc1 (stereo not drawn) [Compound 9]	58.2 ± 18.3	4.2 ± 1.0	–
16.8 ± 4	< 20	–	CC(C)(C)OC(=O)N1CCN(C(=O)Nc2ccc(Cl)cc2)C(c2ccccc2)C1 (stereo not drawn) [Compound 27]	33.8 ± 6	2.2 ± 0.9	–
–	24.4 ± 3.1	–	Cc1ccc(NC(=O)N2CCN(C(=O)OC(C)(C)C)CC2c2ccccc2)cc1 (stereo not drawn) [Compound 34]	68.7 ± 2.8	2.9 ± 0.5	–
–	26.7 ± 3.3	–	CC1CN(C(=O)c2ccccc2)CCN1C(=O)Nc1ccc([N+](=O)[O-])cc1 (stereo not drawn) [Compound 10]	34.1 ± 1.7	1.3 ± 0.1	–
–	25.3 ± 1.6	–	CC1CN(C(=O)c2cc3ccccc3o2)CCN1C(=O)Nc1ccccc1Br (stereo not drawn) [Compound 24]	33.5 ± 3.5	1.3 ± 0.1	–
–	24.8 ± 1.7	–	CC(C)(C)OC(=O)N1CCN(C(=O)Nc2ccc(F)cc2)C(c2ccccc2)C1 (stereo not drawn) [Compound 29]	56.3 ± 16.5	2.2 ± 0.5	–
< 20	17.7 ± 5	–	CC1CN(C(=O)c2cc3ccccc3o2)CCN1C(=O)NC12CC3CC(CC(C3)C1)C2 (stereo not drawn) [Compound 41, 4-(Benzofuran-2-carbonyl)-2-methyl-1-[(1-adamantyl)aminocarbonyl]piperazine]	103 ± 66.9	5.1 ± 2.3 and ~ 5	–
19.5 ± 3.5	< 20	–	CC(C)(C)OC(=O)N1CCN(C(=O)Nc2ccc(C#N)cc2)C(c2ccccc2)C1 (stereo not drawn) [Compound 28]	55.2 ± 24.4	2.7 ± 0.8	–
